Laboratory results published in patent US20250034592A1, “NEUROPEPTIDE-[…] AND METHODS FOR THE TREATMENT OF EPILEPSY” (CHARITE - UNIVERSIT[…], priority 2016, published 2025).

System: pDyn deficient mice
Experiment: Seizure threshold, pentylenetetrazole (PTZ) tail-vein infusion
Format: in vivo
Details: FIG. 6; for potency in seizure threshold test: compared with Dyn B
Source text: Pentylenetetrazole is an inhibitor of GABAA receptors and induces seizures upon injection into the tail vein. pDyn deficient animals display a reduce seizure threshold compared to wild-type mice. […] From this, we expect an early onset of the effect of gene therapy and a lower number of vectors needed per patient.
The seizure threshold is a measure for the susceptibility to develop seizures. The resistance against seizure-inducing agents or stimuli is used as readout in animals. Infusion of pentylenetetrazole, a GABAA receptor antagonist, into the tail vein of rodents is an accepted method to measure the seizure threshold. […] This can be rescued by kappa opioid receptors agonists.
Seizure threshold was determined by pentylenetetrazole (PTZ) (see FIG. 6) tail-vein infusion on freely moving pDyn deficient mice at a rate of 100 μl/min ([…] PTZ in saline, pH 7.4). […] The seizure threshold dose was calculated from the infused volume in relation to body weight. Dyn B or modified variants thereof were dissolved in DMSO and diluted to the final dosages in saline containing final concentrations of 10% DMSO, 3% Tween 80. 3 μl of peptide-solution were applied 30 min. before tail-vein infusion under mild sevoflurane anaesthesia into the cisterna magna. The following peptides were tested: Dyn B=SEQ ID No. 8, Dyn B G3A=SEQ ID 10 No. 11 wherein Z at position 3 is alanine, Dyn B G3A+Q8A=SEQ ID No. 11 wherein Z at position 3 is alanine and Z at position 8 of SEQ ID No. 11 is alanine, Dyn B Q8A=SEQ ID No. 11 wherein Z at position 8 is alanine.

Row | Substance | potency in seizure threshold test | seizure threshold (peptide applied into cisterna magna 30 min before)
1 | Dyn B G3A: SEQ ID No. 11 (YGZFLRRZFKVVT) wherein Z at position 3 is alanine (YGAFLRRXFKVVT; VARIANT 3 Any amino acid; VARIANT 8 Any amino acid; listed as Homo sapiens) | higher potency | –
2 | Dynorphin B [Dyn B, reference compound] | – | rescued
3 | Dyn B G3A+Q8A: SEQ ID No. 11 wherein Z at position 3 is alanine and Z at position 8 is alanine (YGAFLRRAFKVVT; VARIANT 3 Any amino acid; VARIANT 8 Any amino acid; listed as Homo sapiens) | higher potency | –
